In ChEMBL document CHEMBL4800729 (2021):

Tests used:
[1] = target: Serine/threonine-protein kinase WNK4 (Homo sapiens) (UniProt Q96J92); assay: WNK4(h) Millipore kinase panel; conditions: Compound concentration 1.0 uM
[2] = target: Protein kinase C epsilon type (Homo sapiens) (UniProt Q02156); assay: PKCepsilon(h) Millipore kinase panel; conditions: Compound concentration 1.0 uM
[3] = target: Protein-tyrosine kinase 2-beta (Homo sapiens) (UniProt Q14289); assay: Pyk2(h) Millipore kinase panel; conditions: Compound concentration 1.0 uM
[4] = target: Insulin receptor (Homo sapiens) (UniProt P06213); conditions: Rattus norvegicus; Compound concentration 10.0 uM
[5] = target: Beta-3 adrenergic receptor (Homo sapiens) (UniProt P13945); conditions: Compound concentration 10.0 uM
[6] = target: Tyrosine-protein kinase Mer (Homo sapiens) (UniProt Q12866); assay: Mer(h) Millipore kinase panel; conditions: Compound concentration 1.0 uM
[7] = target: Serine/threonine-protein kinase PLK2 (Homo sapiens) (UniProt Q9NYY3); assay: Snk(h) Millipore kinase panel; conditions: Compound concentration 1.0 uM
[8] = target: Muscarinic acetylcholine receptor M2 (Homo sapiens) (UniProt P08172); conditions: Compound concentration 10.0 uM
[9] = target: Non-receptor tyrosine-protein kinase TYK2 (Homo sapiens) (UniProt P29597); assay: TYK2(h) Millipore kinase panel; conditions: Compound concentration 1.0 uM
[10] = target: Serine/threonine-protein kinase DCLK3 (Homo sapiens) (UniProt Q9C098); assay: DCAMKL3(h) Millipore kinase panel; conditions: Compound concentration 1.0 uM
[11] = target: Tyrosine-protein kinase Tec (Homo sapiens) (UniProt P42680); assay: Tec(h) activated Millipore kinase panel; conditions: Compound concentration 1.0 uM
[12] = target: Transcription initiation factor TFIID subunit 1-like (Homo sapiens) (UniProt Q8IZX4); assay: TAF1L(h) Millipore kinase panel; conditions: Compound concentration 1.0 uM
[13] = target: Serine/threonine-protein kinase 17B (Homo sapiens) (UniProt O94768); assay: DRAK2(h) Millipore kinase panel; conditions: Compound concentration 1.0 uM
[14] = target: Inhibitor of nuclear factor kappa-B kinase subunit beta (Homo sapiens) (UniProt O14920); assay: IKKbeta(h) Millipore kinase panel; conditions: Compound concentration 1.0 uM
[15] = target: eIF-2-alpha kinase GCN2 (Homo sapiens) (UniProt Q9P2K8); assay: GCN2(h) Millipore kinase panel; conditions: Compound concentration 1.0 uM
[16] = target: Serine/threonine-protein kinase 3 (Homo sapiens) (UniProt Q13188); assay: MST2(h) Millipore kinase panel; conditions: Compound concentration 1.0 uM
[17] = target: CDK7/Cyclin H/MNAT1 (Homo sapiens) (UniProt P51946+P50613+P51948); assay: CDK7/cyclinH/MAT1(h) Millipore kinase panel; type: protein-complex assay; conditions: Compound concentration 1.0 uM
[18] = target: CDK18/Cyclin Y (Homo sapiens) (UniProt Q07002+Q8ND76); assay: CDK18/cyclinY(h) Millipore kinase panel; type: protein-complex assay; conditions: Compound concentration 1.0 uM
[19] = target: Glycogen synthase kinase-3 alpha (Homo sapiens) (UniProt P49840); assay: GSK3alpha(h Millipore kinase panel; conditions: Compound concentration 1.0 uM
[20] = target: Tyrosine-protein kinase Lck (Homo sapiens) (UniProt P06239); assay: Lck(h) activated Millipore kinase panel; conditions: Compound concentration 1.0 uM
[21] = target: cGMP-dependent protein kinase 1 (Homo sapiens) (UniProt Q13976); assay: PKG1beta(h) Millipore kinase panel; conditions: Compound concentration 1.0 uM
[22] = target: Cyclin-dependent kinase-like 2 (Homo sapiens) (UniProt Q92772); assay: CDKL2(h) Millipore kinase panel; conditions: Compound concentration 1.0 uM
[23] = target: Tyrosine-protein kinase Fer (Homo sapiens) (UniProt P16591); assay: Fer(h) Millipore kinase panel; conditions: Compound concentration 1.0 uM
[24] = target: Serine/threonine-protein kinase B-raf (Homo sapiens) (UniProt P15056); assay: BRaf(h) Millipore kinase panel; conditions: Compound concentration 1.0 uM
[25] = target: Type-2 angiotensin II receptor (Homo sapiens) (UniProt P50052); conditions: Compound concentration 10.0 uM
[26] = target: Proto-oncogene tyrosine-protein kinase receptor Ret (Homo sapiens) (UniProt P07949); assay: Ret(h) Millipore kinase panel; conditions: Compound concentration 1.0 uM
[27] = target: Serine/threonine-protein kinase LATS1 (Homo sapiens) (UniProt O95835); assay: LATS1(h) Millipore kinase panel; conditions: Compound concentration 1.0 uM
[28] = target: Sodium-dependent noradrenaline transporter (Homo sapiens) (UniProt P23975); conditions: Compound concentration 10.0 uM
[29] = target: Serine/threonine-protein kinase haspin (Homo sapiens) (UniProt Q8TF76); assay: Haspin(h) Millipore kinase panel; conditions: Compound concentration 1.0 uM
[30] = target: 5-hydroxytryptamine receptor 6 (Homo sapiens, UniProt P50406); conditions: Compound concentration 10.0 uM
[31] = target: Tyrosine-protein kinase BTK (Homo sapiens) (UniProt Q06187); assay: BTK(h) Millipore kinase panel; conditions: Compound concentration 1.0 uM
[32] = target: Serine/threonine-protein kinase 35 (Homo sapiens) (UniProt Q8TDR2); assay: CLIK1(h) Millipore kinase panel; conditions: Compound concentration 1.0 uM
[33] = target: Polyunsaturated fatty acid lipoxygenase ALOX15 (Homo sapiens) (UniProt P16050); assay: Inhibition of Lipoxygenase 15-LO at compound concentration of 10.0 uM in the Eurofins-Panlabs enzyme assay (Eurofins_assay_199017); conditions: Compound concentration 10.0 uM
[34] = target: Serine/threonine-protein kinase Nek1 (Homo sapiens) (UniProt Q96PY6); assay: NEK1(h) Millipore kinase panel; conditions: Compound concentration 1.0 uM
[35] = target: 5-hydroxytryptamine receptor 2B (Homo sapiens, UniProt P41595); conditions: Compound concentration 10.0 uM
[36] = target: Rhodopsin kinase GRK7 (Homo sapiens) (UniProt Q8WTQ7); assay: GRK7(h) Millipore kinase panel; conditions: Compound concentration 1.0 uM
[37] = target: Mitogen-activated protein kinase 1 (Homo sapiens) (UniProt P28482); assay: MAPK1(h) Millipore kinase panel; conditions: Compound concentration 1.0 uM
[38] = target: Histamine H3 receptor (Homo sapiens) (UniProt Q9Y5N1); conditions: Compound concentration 10.0 uM
[39] = target: Serine/threonine-protein kinase LATS2 (Homo sapiens) (UniProt Q9NRM7); assay: LATS2(h) Millipore kinase panel; conditions: Compound concentration 1.0 uM
[40] = target: Ribosomal protein S6 kinase alpha-6 (Homo sapiens) (UniProt Q9UK32); assay: Rsk4(h) Millipore kinase panel; conditions: Compound concentration 1.0 uM
[41] = target: Dual specificity mitogen-activated protein kinase kinase 2 (Homo sapiens) (UniProt P36507); assay: MEK2(h) Millipore kinase panel; conditions: Compound concentration 1.0 uM
[42] = target: Homeodomain-interacting protein kinase 1 (Homo sapiens) (UniProt Q86Z02); assay: HIPK1(h) Millipore kinase panel; conditions: Compound concentration 1.0 uM
[43] = target: Serine/threonine-protein kinase pim-3 (Homo sapiens) (UniProt Q86V86); assay: Pim-3(h) Millipore kinase panel; conditions: Compound concentration 1.0 uM
[44] = target: Mitogen-activated protein kinase 1 (Homo sapiens) (UniProt P28482); assay: MAPK2(h) Millipore kinase panel; conditions: Compound concentration 1.0 uM
[45] = target: Progesterone receptor (Homo sapiens) (UniProt P06401); conditions: Compound concentration 10.0 uM
[46] = target: MAP kinase-activated protein kinase 5 (Homo sapiens) (UniProt Q8IW41); assay: PRAK(h) Millipore kinase panel; conditions: Compound concentration 1.0 uM
[47] = target: CDK17/Cyclin-Y (Homo sapiens) (UniProt Q00537+Q8ND76); assay: CDK17/cyclinY(h) Millipore kinase panel; type: protein-complex assay; conditions: Compound concentration 1.0 uM
[48] = target: Angiopoietin-1 receptor (Homo sapiens) (UniProt Q02763); assay: Tie2(h) Millipore kinase panel; conditions: Compound concentration 1.0 uM
[49] = target: Serine/threonine-protein kinase PAK 5 (Homo sapiens) (UniProt Q9P286); assay: PAK5(h) Millipore kinase panel; conditions: Compound concentration 1.0 uM

Mitogen-activated protein kinase 1 (Homo sapiens), sequence (P28482 whole entry): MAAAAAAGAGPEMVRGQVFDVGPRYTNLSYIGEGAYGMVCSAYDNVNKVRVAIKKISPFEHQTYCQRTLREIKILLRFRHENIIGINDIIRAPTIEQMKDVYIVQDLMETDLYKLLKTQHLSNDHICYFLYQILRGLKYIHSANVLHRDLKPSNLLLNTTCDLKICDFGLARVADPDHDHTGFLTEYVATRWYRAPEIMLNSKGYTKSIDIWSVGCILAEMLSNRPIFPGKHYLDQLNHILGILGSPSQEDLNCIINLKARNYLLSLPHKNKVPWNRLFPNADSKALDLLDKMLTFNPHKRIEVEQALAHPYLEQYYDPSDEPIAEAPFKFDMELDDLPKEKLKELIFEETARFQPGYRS
Serine/threonine-protein kinase LATS1 (Homo sapiens), sequence (O95835 whole entry): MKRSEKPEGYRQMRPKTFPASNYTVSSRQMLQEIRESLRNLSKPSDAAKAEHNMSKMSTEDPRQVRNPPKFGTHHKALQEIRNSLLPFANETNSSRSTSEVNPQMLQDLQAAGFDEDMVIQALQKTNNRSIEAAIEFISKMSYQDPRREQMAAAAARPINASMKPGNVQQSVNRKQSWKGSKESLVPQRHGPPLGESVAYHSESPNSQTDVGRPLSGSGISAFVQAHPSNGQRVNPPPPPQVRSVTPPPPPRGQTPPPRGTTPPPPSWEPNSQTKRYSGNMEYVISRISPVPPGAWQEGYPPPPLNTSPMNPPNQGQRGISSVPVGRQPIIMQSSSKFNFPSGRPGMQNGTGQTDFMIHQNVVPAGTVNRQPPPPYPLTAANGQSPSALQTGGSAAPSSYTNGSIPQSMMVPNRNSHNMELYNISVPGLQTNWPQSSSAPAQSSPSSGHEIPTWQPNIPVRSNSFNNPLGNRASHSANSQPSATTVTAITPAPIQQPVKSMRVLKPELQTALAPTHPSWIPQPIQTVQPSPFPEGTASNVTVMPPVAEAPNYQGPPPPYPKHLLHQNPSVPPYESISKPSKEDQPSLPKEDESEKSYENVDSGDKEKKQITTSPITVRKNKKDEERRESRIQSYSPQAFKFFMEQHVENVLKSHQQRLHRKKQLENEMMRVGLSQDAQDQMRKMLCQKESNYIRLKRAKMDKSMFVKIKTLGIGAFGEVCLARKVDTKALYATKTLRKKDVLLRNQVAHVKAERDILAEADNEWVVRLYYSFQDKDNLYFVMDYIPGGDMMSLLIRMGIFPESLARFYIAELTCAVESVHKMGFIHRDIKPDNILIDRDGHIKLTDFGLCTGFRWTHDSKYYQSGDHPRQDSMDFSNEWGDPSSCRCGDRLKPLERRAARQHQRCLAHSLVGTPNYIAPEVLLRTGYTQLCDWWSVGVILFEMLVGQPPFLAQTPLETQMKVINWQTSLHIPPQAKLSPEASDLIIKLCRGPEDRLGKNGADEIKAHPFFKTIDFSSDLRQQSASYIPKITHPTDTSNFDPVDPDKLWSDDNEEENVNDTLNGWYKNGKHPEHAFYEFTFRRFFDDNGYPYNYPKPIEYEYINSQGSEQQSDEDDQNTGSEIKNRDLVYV
Ribosomal protein S6 kinase alpha-6 (Homo sapiens), sequence (Q9UK32 whole entry): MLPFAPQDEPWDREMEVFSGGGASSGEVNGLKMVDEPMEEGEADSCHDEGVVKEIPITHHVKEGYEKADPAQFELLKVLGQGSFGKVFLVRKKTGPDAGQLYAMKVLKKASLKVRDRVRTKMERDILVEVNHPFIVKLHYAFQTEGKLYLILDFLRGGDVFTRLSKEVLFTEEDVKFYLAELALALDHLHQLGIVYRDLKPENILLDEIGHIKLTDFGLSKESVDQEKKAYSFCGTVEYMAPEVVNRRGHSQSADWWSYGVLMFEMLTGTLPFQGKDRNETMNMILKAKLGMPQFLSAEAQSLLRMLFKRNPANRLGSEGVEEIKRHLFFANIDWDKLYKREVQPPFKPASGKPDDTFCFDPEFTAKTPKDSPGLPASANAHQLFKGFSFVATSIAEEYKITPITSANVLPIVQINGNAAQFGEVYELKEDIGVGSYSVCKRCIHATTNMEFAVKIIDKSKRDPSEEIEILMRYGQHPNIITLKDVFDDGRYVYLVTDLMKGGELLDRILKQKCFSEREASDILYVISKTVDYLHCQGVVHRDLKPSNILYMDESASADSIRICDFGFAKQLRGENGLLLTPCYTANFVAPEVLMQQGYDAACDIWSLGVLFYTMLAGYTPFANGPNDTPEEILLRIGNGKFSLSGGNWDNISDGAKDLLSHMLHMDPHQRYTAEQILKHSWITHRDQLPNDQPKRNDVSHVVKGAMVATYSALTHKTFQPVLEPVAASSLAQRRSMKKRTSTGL
Serine/threonine-protein kinase Nek1 (Homo sapiens), sequence (Q96PY6 whole entry): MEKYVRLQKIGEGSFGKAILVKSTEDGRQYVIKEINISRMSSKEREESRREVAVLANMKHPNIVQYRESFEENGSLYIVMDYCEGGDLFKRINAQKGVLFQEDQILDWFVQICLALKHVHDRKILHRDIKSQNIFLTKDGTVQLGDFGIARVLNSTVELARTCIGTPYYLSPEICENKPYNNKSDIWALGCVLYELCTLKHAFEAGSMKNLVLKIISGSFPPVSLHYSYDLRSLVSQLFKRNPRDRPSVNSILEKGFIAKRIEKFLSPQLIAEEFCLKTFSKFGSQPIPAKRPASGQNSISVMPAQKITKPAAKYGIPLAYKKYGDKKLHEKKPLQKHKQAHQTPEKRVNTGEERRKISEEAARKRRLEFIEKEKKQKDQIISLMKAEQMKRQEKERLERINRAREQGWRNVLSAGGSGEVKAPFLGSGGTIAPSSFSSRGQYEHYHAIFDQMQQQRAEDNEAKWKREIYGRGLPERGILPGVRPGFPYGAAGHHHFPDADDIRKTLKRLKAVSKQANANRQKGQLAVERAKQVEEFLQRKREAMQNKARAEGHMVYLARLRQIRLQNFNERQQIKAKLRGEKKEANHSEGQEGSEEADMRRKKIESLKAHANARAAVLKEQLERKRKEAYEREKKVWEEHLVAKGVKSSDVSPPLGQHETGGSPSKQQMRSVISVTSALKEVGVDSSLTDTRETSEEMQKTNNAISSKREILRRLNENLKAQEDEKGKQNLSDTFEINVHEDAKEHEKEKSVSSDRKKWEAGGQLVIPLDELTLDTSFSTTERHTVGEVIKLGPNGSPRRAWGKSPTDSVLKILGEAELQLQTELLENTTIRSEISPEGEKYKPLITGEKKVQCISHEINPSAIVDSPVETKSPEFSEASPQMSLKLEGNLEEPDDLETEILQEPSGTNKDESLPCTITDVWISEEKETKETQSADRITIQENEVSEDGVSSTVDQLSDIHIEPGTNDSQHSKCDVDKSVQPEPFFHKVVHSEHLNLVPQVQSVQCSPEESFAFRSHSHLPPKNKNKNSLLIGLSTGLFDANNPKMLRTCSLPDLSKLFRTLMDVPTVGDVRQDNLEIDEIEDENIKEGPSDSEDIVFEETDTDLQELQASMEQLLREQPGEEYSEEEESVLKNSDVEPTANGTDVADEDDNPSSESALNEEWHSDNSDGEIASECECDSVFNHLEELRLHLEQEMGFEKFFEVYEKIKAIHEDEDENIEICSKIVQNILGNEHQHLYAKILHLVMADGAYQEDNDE
Sodium-dependent noradrenaline transporter (Homo sapiens), sequence (P23975 whole entry): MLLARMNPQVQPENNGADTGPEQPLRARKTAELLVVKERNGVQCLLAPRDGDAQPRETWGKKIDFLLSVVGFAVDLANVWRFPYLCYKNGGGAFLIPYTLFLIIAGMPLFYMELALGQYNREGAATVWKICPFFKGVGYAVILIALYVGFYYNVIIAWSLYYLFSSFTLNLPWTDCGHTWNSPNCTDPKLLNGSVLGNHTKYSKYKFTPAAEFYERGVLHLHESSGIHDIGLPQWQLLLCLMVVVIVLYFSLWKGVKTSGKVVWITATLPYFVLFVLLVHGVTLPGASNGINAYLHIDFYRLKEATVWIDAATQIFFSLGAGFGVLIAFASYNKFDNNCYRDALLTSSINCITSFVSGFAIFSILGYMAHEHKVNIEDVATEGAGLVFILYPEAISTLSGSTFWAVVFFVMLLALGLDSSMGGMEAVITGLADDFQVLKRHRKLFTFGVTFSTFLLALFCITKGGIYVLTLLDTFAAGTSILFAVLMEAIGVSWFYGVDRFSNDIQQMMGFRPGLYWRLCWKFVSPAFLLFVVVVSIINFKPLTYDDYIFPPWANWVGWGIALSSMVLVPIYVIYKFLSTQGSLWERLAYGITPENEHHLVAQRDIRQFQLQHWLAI
Polyunsaturated fatty acid lipoxygenase ALOX15 (Homo sapiens), sequence (P16050 whole entry): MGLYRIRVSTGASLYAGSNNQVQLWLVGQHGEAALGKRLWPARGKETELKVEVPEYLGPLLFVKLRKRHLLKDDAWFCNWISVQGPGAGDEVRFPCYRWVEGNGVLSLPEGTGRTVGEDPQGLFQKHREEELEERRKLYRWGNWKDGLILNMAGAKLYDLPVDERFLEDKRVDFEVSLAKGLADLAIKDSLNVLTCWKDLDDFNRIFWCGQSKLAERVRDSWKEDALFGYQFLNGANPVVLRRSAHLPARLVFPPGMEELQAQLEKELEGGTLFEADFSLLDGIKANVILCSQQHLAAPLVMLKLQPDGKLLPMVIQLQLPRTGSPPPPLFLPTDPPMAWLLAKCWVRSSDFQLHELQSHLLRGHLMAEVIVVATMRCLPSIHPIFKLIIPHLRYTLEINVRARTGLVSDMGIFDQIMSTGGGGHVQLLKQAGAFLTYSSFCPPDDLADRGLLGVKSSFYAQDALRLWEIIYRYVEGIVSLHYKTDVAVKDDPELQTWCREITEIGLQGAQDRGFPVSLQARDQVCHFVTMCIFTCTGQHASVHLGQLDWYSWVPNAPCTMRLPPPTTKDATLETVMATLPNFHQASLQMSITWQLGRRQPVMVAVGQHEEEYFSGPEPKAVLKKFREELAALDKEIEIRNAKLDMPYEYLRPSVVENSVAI

`CC[C@@H](Nc1c(C#N)c(-c2ccc(-c3cccc(C)c3F)cc2)nc2cnccc12)C(=O)O` [BAY-091] showed an inhibition [1] of 11.1%, an inhibition [2] of -4.26% and an inhibition [3] of 10.7%. The inhibition [4] was -1%, the inhibition [5] was 16% and the inhibition [6] was 10.2%. For the same compound, the inhibition [7] was 7.48%, the inhibition [8] was 8% and the inhibition [9] was 1.22%. It also gave an inhibition [10] of 5.32%, an inhibition [11] of 4.62% and an inhibition [12] of -3.49%. It also gave an inhibition [13] of 7.08%, an inhibition [14] of 2.85% and an inhibition [15] of -3.21%. For the same compound, the inhibition [16] was 0.08%, the inhibition [17] was 0.3% and the inhibition [18] was 10.6%. The inhibition [19] was 5.47%, the inhibition [20] was -3.67% and the inhibition [21] was 8.22%. The inhibition [22] was 19.4%, the inhibition [23] was 5.23% and the inhibition [24] was 23.5%. It also gave an inhibition [25] of 11%, an inhibition [26] of -3.56% and an inhibition [27] of 8.31%. It also gave an inhibition [28] of -2.64%, an inhibition [29] of 14.2% and an inhibition [30] of -2.99%. For the same compound, the inhibition [31] was 12.8%, the inhibition [32] was 9.55% and the inhibition [33] was 20%. It also gave an inhibition [34] of 24.4%, an inhibition [35] of 98% and an inhibition [36] of 2.75%. The inhibition [37] was 6.43%, the inhibition [38] was 3% and the inhibition [39] was 1.83%. The inhibition [40] was -6.19%, the inhibition [41] was -9.56% and the inhibition [42] was 3.6%. For the same compound, the inhibition [43] was 1.67%, the inhibition [44] was 7.74% and the inhibition [45] was 29%. The inhibition [46] was 23.6%, the inhibition [47] was 0.09% and the inhibition [48] was 12.8%. The inhibition [49] was 1.42%.
